A word on the GI50: it is the concentration giving 50% growth inhibition.

One assay concerns HCT116 cells. In words: Growth inhibition assay (MTS). Format: cell-based. The note with it: Homo sapiens, Table 5, HCT116 cells, 48 hours treatment, MTS, read-out: Growth Inhibition (GI50, uM) HCT116. The essentials:
(§1)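 Cells seeded at 10^4 per well, grown 24 h at 37° C, then exposed to compound at various concentrations for 48 hours. MTS added for 2 h; absorbance at 490 nm gave viability, with cytotoxicity calculated per concentration against pre-treatment reading.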

In a further assay the test system is SW480 cells. In words: Growth inhibition assay (MTS). Format: cell-based. The note with it: Homo sapiens, Table 5, SW480 cells, 48 hours treatment, MTS, read-out: Growth Inhibition (GI50, uM) SW480. Summed up: as §1

Like-named read-outs stand apart in the source and are kept apart here.

`C=CCN1CC(=O)N2[C@@H](Cc3ccc(O)cc3)C(=O)N(Cc3cccc(N(C)C(=O)CCCCC)c3)C[C@@H]2N1C(=O)NCc1ccccc1` [Compound 164]: the concentration for 50% growth inhibition (GI50) amounted to 2.9 ± 0.4 µM in the assay with HCT116 cells (HCT-116, 48 h) and 3 ± 0.3 µM in the assay on SW480 cells (SW480, 48 h).
On the same counts, the results for `C[C@H](c1ccc(F)cc1F)N1C[C@H]2N(C(=O)CN(C)N2C(=O)NCc2ccccc2)[C@@H](Cc2ccc(O)cc2)C1=O` [Compound 165] are 24.4 ± 1.9 µM and 22.8 ± 0.9 µM.
Taken in the same sequence, the figures for `C[C@@H](c1ccc(Cl)c2cccnc12)N1CC2N(C(=O)CN(C)N2C(=O)NCc2ccccc2)[C@@H](Cc2ccc(O)cc2)C1=O` (stereo partly drawn) [Compound 166] were 25.2 ± 3.2 µM and 27.9 ± 4.7 µM.
Regarding `C=CCN1CC(=O)N2[C@@H](Cc3ccc(OP(=O)(O)O)cc3)C(=O)N(Cc3cccc4scnc34)C[C@@H]2N1C(=O)NCc1ccccc1` [Compound 167], the GI50 with HCT116 cells (HCT-116) was 0.2 ± 0.02 µM; with SW480 cells, 0.3 ± 0.02 µM.
On to `C[C@H](c1ccc(Cl)c2cccnc12)N1CC2N(C(=O)CN(C)N2C(=O)NCc2ccccc2)[C@@H](Cc2ccc(O)cc2)C1=O` (stereo partly drawn) [Compound 168], for which the GI50 with HCT116 cells (HCT-116, 48 h) worked out at 6.5 ± 0.3 µM; in the assay with SW480 cells (SW480, 48 h), 6.2 ± 0.8 µM.
Taken in the same sequence, the figures for `C=CCN1CC(=O)N2[C@@H](Cc3ccc(O)cc3)C(=O)N(Cc3cccc4cccnc34)C[C@@H]2N1C(=O)NCc1ccc(Cl)c(Cl)c1` [Compound 169] were 1 ± 0.2 µM and 0.8 ± 0.1 µM.
Turning to `CN1CC(=O)N2[C@@H](Cc3ccc(O)cc3)C(=O)N(Cc3ccc(F)cc3F)C[C@@H]2N1C(=O)NCc1ccc(F)cc1` [Compound 170], the concentration for 50% growth inhibition (GI50) in the assay on HCT116 cells (HCT-116, 48 h) was found to be 8.6 ± 0.8 µM; with SW480 cells (SW480, 48 h), 8.9 ± 0.8 µM.
On to `C=CCN1CC(=O)N2[C@@H](Cc3ccc(O)cc3)C(=O)N(Cc3cccc4c3OCO4)C[C@@H]2N1C(=O)NCc1ccccc1` [Compound 172], for which the 50% growth inhibitory concentration (GI50) in the assay on HCT116 cells (HCT-116, 48 h) came to 0.9 ± 0.1 µM; in the assay on SW480 cells (SW480, 48 h) it was 0.8 ± 0.1 µM.
In the case of `C=CCN1CC(=O)N2[C@@H](Cc3ccc(O)cc3)C(=O)N(Cc3cccc4c3OCCO4)C[C@@H]2N1C(=O)NCc1ccccc1` [Compound 173], the GI50 in the assay on HCT116 cells (HCT-116) worked out at 0.8 ± 0.1 µM; in the assay with SW480 cells, 0.6 ± 0.1 µM.
For the molecule `C=CCN1CC(=O)N2[C@@H](Cc3ccc(O)cc3)C(=O)N(Cc3cccc4c3OCCO4)C[C@@H]2N1C(=O)NCc1ccc(Cl)c(Cl)c1` [Compound 174], the GI50 in the assay on HCT116 cells (HCT-116, 48 h) came out at 1.8 ± 0.1 µM; with SW480 cells (SW480, 48 h) it was 1.9 ± 0.2 µM.
Taken in the same sequence, the figures for `C=CCN1CC(=O)N2[C@@H](Cc3ccc(O)cc3)C(=O)N(Cc3cccc4c3OCC4)C[C@@H]2N1C(=O)NCc1ccccc1` [Compound 175] were 2.5 ± 0.1 µM and 3 ± 0.4 µM.
`C=CCN1CC(=O)N2[C@@H](Cc3ccc(O)cc3)C(=O)N(Cc3cccc(OC(F)(F)F)c3)C[C@@H]2N1C(=O)NCc1ccccc1` [Compound 176]: the concentration for 50% growth inhibition (GI50) in the assay with HCT116 cells (HCT-116, 48 h) was 1.7 ± 0.1 µM; in the assay with SW480 cells (SW480, 48 h), 1.7 ± 0.2 µM.
As to `C=CCN1CC(=O)N2[C@@H](Cc3ccc(O)cc3)C(=O)N(Cc3ccccc3)C[C@@H]2N1C(=O)NCc1ccc(Cl)c(Cl)c1` [Compound 177], the GI50 in the assay with HCT116 cells (HCT-116, 48 h) turned out to be 1.6 ± 0.1 µM; with SW480 cells (SW480, 48 h), 1.8 ± 0.1 µM.
Taken in the same sequence, the figures for `C=CCN1CC(=O)N2[C@@H](Cc3ccc(O)cc3)C(=O)N(Cc3ccc(OC)cc3)C[C@@H]2N1C(=O)NCc1ccccc1` [Compound 178] were 1.5 ± 4.4 µM and 1.6 ± 0.2 µM.
Turning to `C=CCN1CC(=O)N2[C@@H](Cc3ccc(OP(=O)(O)O)cc3)C(=O)N(Cc3ccc(OC)cc3)C[C@@H]2N1C(=O)NCc1ccccc1` [Compound 179], the GI50 with HCT116 cells (HCT-116) came to 1.6 ± 0.1 µM; in the assay on SW480 cells, 1.5 ± 0.1 µM.
With `C=CCN1CC(=O)N2[C@@H](Cc3ccc(O)cc3)C(=O)N(Cc3cccc4scnc34)C[C@@H]2N1C(=O)NCc1ccc(Cl)c(Cl)c1` [Compound 180], the GI50 turned out to be 1.1 ± 0.1 µM in the assay on HCT116 cells (HCT-116, 48 h) and 1 ± 0.1 µM in the assay on SW480 cells (SW480, 48 h).
Taken in the same sequence, the figures for `C=CCN1CC(=O)N2[C@@H](Cc3ccc(O)cc3)C(=O)N(Cc3ccc(OC(F)(F)F)cc3)C[C@@H]2N1C(=O)NCc1ccccc1` [Compound 181] were 2.3 ± 0.1 µM and 2.3 ± 0.1 µM.
Regarding `C=CCN1CC(=O)N2[C@@H](Cc3ccc(OP(=O)(O)O)cc3)C(=O)N(Cc3ccc4c(c3)OCCO4)C[C@@H]2N1C(=O)NCc1ccccc1` [Compound 182], the GI50 was 0.8 ± 0.1 µM with HCT116 cells (HCT-116) and 1 ± 0.1 µM in the assay on SW480 cells.

The values above are taken from patent US7671054B1, “Reverse-turn mimetics and method relating thereto” (Choongwae Pharma Corporation, priority 2001, dated 2010).
